Consider 1 compound from US20250057973A1, “Exosomes for treating glioblastoma multiforme and manufacturing method thereof” (China Medical University, priority 2023, published 2025).

In one assay the test system is GBM cell line U87. In words: Cell death rate of GBM cells in the blood-brain barrier cell culture model. Type of assay: cell-based. The following applies: U87, BBB model. As for the experimental part:
The blood-brain barrier cell culture model 10 includes a first culture area 11 and a second culture area 12, with multiple perforations 13 connecting the first culture area 11 and the second culture area 12. The first culture area 11 and the second culture area 12 are filled with a hydrogel A. The GBM cell line U87 is cultured in the hydrogel A of the first culture area 11, while endothelial cells 20, pericytes 30, and astrocytes 40 are sequentially arranged in the second culture area 12. Wherein the resistance value of the blood-brain barrier cell culture model 10 is set to 214462 Ω.cm^2 to establish an impedance environment of the blood-brain barrier. In subsequent experiments, the drug carrier is given to the second culture area 12 of the blood-brain barrier cell culture model 10, and experimental analysis is performed on the GBM cell line U87 in the first culture area 11 to confirm the efficacy and therapeutic effect of the drug carrier crossing from the second culture area 12 to the first culture area 11. […]

The test system of the next assay is GBM cell line (U87). In words: Animal model of glioblastoma multiforme (U87 implanted into mouse brain): body weight, survival, tumor growth. Type of assay: in vivo, mice. As for the experimental part:
To corroborate the actual effect of the drug carrier in living organisms, in a further experiment, 10^6 cells of the GBM cell line (U87) were implanted into the brains of mice to establish an animal model of glioblastoma multiforme. Seven days after the implantation surgery, the mice were administered the chemotherapy drug and/or drug carrier via intravenous injection, and imaging was used to confirm the growth status of the chemotherapy drug and/or drug carrier and the GBM cell line in the mouse brain. […]
FIGS. 10D and 10E further analyze the fluorescence expression (intensity (10^6)) of the GBM cell line in the brain area of the experimental mice in each group, and present the tissue morphology through hematoxylin-eosin staining (H&E staining) technique in the tissue section staining images to analyze the growth status of the GBM cells. […]

Molecules are shown by their SMILES.

With `Cn1nnc2c(C(N)=O)ncn2c1=O` [TMZ, Temodal], the “cell death rate (%) of the GBM cells” value in the assay on GBM cell line U87 (1st to 3rd day overall) was “significant cell death rate”. Also, in the assay on GBM cell line U87 (by the third day), the “cell death rate (%) of the GBM cells, third day” value is reported as “tended to moderate”. Besides, the “survival rate of the experimental mice” value with GBM cell line (U87) (U87 brain-implanted mice, intravenous injection) is on record as “increased”. In addition, in the assay on GBM cell line (U87) (compared with Clt and αHLA-G EV groups), the “growth of the GBM cell line in brain (fluorescence intensity)” value was “inhibited to some extent”.
